# Active and inactive are the calls of the source. No cut-off for these calls is given here.
# How the values were obtained:
# Cortical neurone [1] = assay: Neuroprotective activity against glutamate-induced excitotoxicity in Wistar rat primary cortical neurons assessed as cell death at 1 uM pretreated with glutamate followed by compound addition measured after 24 hrs by LDH assay relative to control; assay type: functional
# [2] = Neurotoxicity in Wistar rat primary cortical neurons assessed as inhibition of cell viability incubated for 24 hrs by LDH assay; assay type: toxicity, cell-based, Cortical neurone; conditions: for IC50 at 24 h: Wistar, primary cortical neurons; for Activity: cortical neurone, 24 h
# Cortical neurone [3] = assay: Neuroprotective activity against glutamate-induced excitotoxicity in Wistar rat primary cortical neurons assessed as cell death at 1 uM pretreated with compound for 24 hrs followed by incubation with glutamate for 20 mins by LDH assay relative to control; assay type: functional; conditions: time 1460 min, 24.33 h
# Acetylcholinesterase [4] = target: Acetylcholinesterase (Electrophorus electricus, UniProt O42275); assay: Inhibition of electric eel AChE using acetylthiocholine iodide as substrate measured for 30 mins by Ellman's method
# Cholinesterase [5] = target: Cholinesterase (Equus caballus, UniProt P81908)
# Description: Inhibition of equine serum BuChE using butyrylthiocholine iodide as substrate measured for 30 mins by Ellman's method
# [6] = Neurotoxicity in Wistar rat primary cortical neurons assessed as cell viability at 0.001 to 100 uM incubated for 24 hrs by LDH assay; assay type: toxicity, cell-based; conditions: cortical neurone, dose 0.001-100 µM
# [7] = Neuroprotective activity against glutamate-induced excitotoxicity in Wistar rat hippocampal neurons assessed as increase in intracellular ATP level pretreated with compound for 24 hrs followed by incubation with glutamate for 20 mins by CellTiter-Glo assay (reference value: 70 %); assay type: functional, Hippocampal neuron; conditions: time 1460 min; 24.33 h
# [8] = Neuroprotective activity against glutamate-induced excitotoxicity in Wistar rat hippocampal neurons assessed as increase in intracellular ATP level pretreated with glutamate followed by compound addition measured after 24 hrs by CellTiter-Glo assay (reference value: 70 %); assay type: functional, Hippocampal neuron
# Acetylcholinesterase [9] = target: Acetylcholinesterase (Homo sapiens, UniProt P22303); assay: Inhibition of AChE (unknown origin)
# Cholinesterase [10] = target: Cholinesterase (Homo sapiens, UniProt P06276); assay: Inhibition of BChE (unknown origin)
# HepG2 [11] = conditions: human, hepg2, 24 h
# Description: Cytotoxicity against human HepG2 cells assessed as total growth inhibition incubated for 24 hrs by SRB assay
# Astrocyte [12] = assay: Neuroprotective activity against glutamate-induced excitotoxicity in Wistar rat astrocytes co-cultured with neurons assessed as prevention of collapse of dendritic spines at 10 uM pretreated with compound for 24 hrs followed by incubation with glutamate for 20 mins by fluorescence based analysis; assay type: functional, cell-based; conditions: time 1460.0 min
# Astrocyte [13] = assay: Neuroprotective activity against glutamate-induced excitotoxicity in Wistar rat astrocytes co-cultured with neurons assessed as prevention of retraction of dendritic spines at 10 uM pretreated with glutamate followed by compound addition measured after 24 hrs by fluorescence based analysis; assay type: functional, cell-based
# [14] = Cytotoxicity against human HepG2 cells assessed as fold decrease in GI50 incubated for 24 hrs by SRB assay relative to tacrine; assay type: toxicity, cell-based; conditions: read-out: RatioGI50
# [15] = Stability in human plasma assessed as compound remaining at 200 uM incubated for 240 mins by HPLC-UV analysis; assay type: ADME, cell-free; conditions: read-out: Stability
# HepG2 [16] = conditions: human, hepg2, 24 h; remark: listed apart in the source
# Description: Cytotoxicity against human HepG2 cells assessed as cell population mortality incubated for 24 hrs by SRB assay
# Astrocyte [17] = assay: Neuroprotective activity against glutamate-induced excitotoxicity in Wistar rat astrocytes co-cultured with neurons assessed as protection against cell injury at 10 uM pretreated with compound for 24 hrs followed by incubation with glutamate for 20 mins by fluorescence based analysis; assay type: functional; conditions: time 1460.0 min
# [18] = Stability in human plasma at 200 uM measured after 240 mins by HPLC-UV analysis; assay type: ADME, cell-free; conditions: 4 h
# [19] = Stability in human plasma at pH 7.4 assessed as half life at 200 uM measured up to 240 mins by HPLC-UV analysis; assay type: ADME, cell-free
# Astrocyte [20] = assay: Neuroprotective activity against glutamate-induced excitotoxicity in Wistar rat astrocytes co-cultured with neurons assessed as prevention of disruption of cytoskeleton at 10 uM pretreated with compound for 24 hrs followed by incubation with glutamate for 20 mins by fluorescence based analysis; assay type: functional, cell-based; conditions: time 1460.0 min
# in vitro = conditions: human, HepG2 cells
# Description: Cytotoxicity against human HepG2 cells assessed as inhibition of cell growth incubated for 24 hrs by SRB assay
# Astrocyte [21] = assay: Neuroprotective activity against glutamate-induced excitotoxicity in Wistar rat astrocytes assessed as decrease in LDH release at 10 uM pretreated with glutamate followed by compound addition measured after 24 hrs by spectrophotometric analysis relative to control; assay type: functional; set-up: scale not given: the % may be the effect or the level left
# Astrocyte [22] = assay: Neuroprotective activity against glutamate-induced excitotoxicity in Wistar rat astrocytes co-cultured with neurons assessed as prevention of retraction of dendritic spines at 10 uM pretreated with compound for 24 hrs followed by incubation with glutamate for 20 mins by fluorescence based analysis; assay type: functional, cell-based; conditions: time 1460.0 min
# [23] = Stability in human plasma assessed as compound degradation at 200 uM measured after 240 mins by HPLC-UV analysis; assay type: ADME, cell-free; conditions: read-out: Drug degradation
# Astrocyte [24] = assay: Neuroprotective activity against glutamate-induced excitotoxicity in Wistar rat astrocytes co-cultured with neurons assessed as decrease in LDH release at 10 uM pretreated with compound for 24 hrs followed by glutamate addition for 20 mins by spectrophotometric analysis relative to control; assay type: functional; set-up: scale not given: the % may be the effect or the level left; conditions: time 1460 min, 24.33 h
# [25] = mouse, astrocyte, 24 h
# Description: Blood-brain barrier transwell (BBB-T) permeability in mouse bEnd.3 cells (luminal side) to C57BL/6 mouse astrocyte (abluminal side) measured after 24 hrs by Transwell assay
# Astrocyte [26] = assay: Neuroprotective activity against glutamate-induced excitotoxicity in Wistar rat astrocytes co-cultured with neurons assessed as prevention of collapse of dendritic spines at 10 uM pretreated with glutamate followed by compound addition measured after 24 hrs by fluorescence based analysis; assay type: functional, cell-based
# Astrocyte [27] = assay: Neuroprotective activity against glutamate-induced excitotoxicity in Wistar rat astrocytes co-cultured with neurons assessed as prevention of disruption of cytoskeleton at 10 uM pretreated with glutamate followed by compound addition measured after 24 hrs by fluorescence based analysis; assay type: functional, cell-based
# Acetylcholinesterase (Homo sapiens, UniProt P22303), sequence (P22303 whole entry): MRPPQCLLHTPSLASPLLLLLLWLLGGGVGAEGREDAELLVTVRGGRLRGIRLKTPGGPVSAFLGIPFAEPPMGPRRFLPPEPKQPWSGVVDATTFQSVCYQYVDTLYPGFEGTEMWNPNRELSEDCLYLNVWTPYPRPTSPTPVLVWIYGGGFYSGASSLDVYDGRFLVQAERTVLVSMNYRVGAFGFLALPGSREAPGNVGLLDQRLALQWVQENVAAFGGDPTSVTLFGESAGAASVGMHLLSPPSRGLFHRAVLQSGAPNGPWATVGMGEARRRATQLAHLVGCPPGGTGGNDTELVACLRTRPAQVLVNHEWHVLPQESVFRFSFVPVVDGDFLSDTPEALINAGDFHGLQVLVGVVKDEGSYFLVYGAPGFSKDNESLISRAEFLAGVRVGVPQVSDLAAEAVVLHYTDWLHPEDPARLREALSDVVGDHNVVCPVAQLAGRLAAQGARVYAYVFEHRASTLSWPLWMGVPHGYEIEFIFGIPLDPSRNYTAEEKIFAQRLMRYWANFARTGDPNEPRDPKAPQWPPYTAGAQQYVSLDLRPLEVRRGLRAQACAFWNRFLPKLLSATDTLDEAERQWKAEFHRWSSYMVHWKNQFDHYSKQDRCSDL
# Cholinesterase (Homo sapiens, UniProt P06276), sequence (P06276 whole entry): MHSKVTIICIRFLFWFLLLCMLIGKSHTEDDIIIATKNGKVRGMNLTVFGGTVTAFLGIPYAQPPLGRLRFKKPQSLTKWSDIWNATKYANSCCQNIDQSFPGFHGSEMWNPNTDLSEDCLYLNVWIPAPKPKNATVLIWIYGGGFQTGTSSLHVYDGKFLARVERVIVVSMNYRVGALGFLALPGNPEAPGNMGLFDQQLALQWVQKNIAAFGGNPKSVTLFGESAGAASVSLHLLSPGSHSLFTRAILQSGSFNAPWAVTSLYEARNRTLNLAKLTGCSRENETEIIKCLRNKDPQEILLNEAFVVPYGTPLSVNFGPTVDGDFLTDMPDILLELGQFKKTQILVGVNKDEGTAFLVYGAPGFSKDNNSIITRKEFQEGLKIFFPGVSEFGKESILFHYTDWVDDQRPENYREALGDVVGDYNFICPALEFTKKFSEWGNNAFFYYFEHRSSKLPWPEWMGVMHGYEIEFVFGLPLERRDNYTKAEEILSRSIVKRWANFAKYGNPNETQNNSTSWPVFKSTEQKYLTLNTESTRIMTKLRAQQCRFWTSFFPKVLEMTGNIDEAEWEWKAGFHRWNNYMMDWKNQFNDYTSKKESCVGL
# Cholinesterase (Equus caballus, UniProt P81908), sequence (P81908 whole entry): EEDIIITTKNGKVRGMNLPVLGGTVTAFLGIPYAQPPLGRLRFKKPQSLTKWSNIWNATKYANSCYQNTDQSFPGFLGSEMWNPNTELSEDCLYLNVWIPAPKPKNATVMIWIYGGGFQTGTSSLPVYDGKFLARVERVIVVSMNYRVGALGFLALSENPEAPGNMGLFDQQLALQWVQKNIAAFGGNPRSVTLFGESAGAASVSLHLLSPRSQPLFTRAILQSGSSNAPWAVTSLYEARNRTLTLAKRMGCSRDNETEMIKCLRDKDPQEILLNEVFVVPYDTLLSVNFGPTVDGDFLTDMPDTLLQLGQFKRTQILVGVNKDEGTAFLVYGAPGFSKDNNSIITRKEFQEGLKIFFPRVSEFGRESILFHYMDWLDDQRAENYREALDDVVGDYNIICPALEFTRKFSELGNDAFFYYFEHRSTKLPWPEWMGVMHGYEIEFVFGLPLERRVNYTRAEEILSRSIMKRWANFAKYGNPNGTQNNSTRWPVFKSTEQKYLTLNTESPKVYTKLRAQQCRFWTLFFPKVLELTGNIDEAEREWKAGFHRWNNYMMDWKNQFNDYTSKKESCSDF
# Acetylcholinesterase (Electrophorus electricus, UniProt O42275), sequence (O42275 whole entry): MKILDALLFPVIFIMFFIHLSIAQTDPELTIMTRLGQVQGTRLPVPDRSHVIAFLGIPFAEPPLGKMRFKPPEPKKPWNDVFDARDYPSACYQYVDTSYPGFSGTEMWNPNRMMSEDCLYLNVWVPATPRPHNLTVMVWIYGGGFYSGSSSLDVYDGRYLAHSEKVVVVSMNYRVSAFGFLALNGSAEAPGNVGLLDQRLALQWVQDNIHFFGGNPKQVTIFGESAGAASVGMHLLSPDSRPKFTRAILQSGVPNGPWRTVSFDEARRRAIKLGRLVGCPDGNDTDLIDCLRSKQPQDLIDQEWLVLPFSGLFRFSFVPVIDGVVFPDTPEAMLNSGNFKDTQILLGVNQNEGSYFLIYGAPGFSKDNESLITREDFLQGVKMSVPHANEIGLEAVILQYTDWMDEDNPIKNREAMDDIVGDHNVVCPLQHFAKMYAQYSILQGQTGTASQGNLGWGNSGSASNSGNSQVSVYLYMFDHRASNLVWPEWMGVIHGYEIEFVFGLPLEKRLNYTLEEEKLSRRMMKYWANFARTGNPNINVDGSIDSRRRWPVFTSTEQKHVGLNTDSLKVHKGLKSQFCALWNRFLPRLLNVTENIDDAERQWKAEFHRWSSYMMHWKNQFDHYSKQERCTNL
structure (smiles),measurement,setting,value
COc1cc(OC)cc(C(C#N)N2CCN(CC(=O)Nc3c4c(nc5ccccc35)CCC4)CC2)c1 (racemic),Activity,Cortical neurone [1],35.59%
same,IC50 at 24 h,[2],298000 nM
same,Activity,[2],Toxic
same,Activity,Cortical neurone [3],62.67%
same,IC50,Acetylcholinesterase [4],Not_active
same,IC50,Cholinesterase [5],690 nM
same,Activity,[6],Non-toxic
CC12CC3CC(C)(C1)CC(N)(C3)C2 [MEMANTINE],Activity,[7],10.37%
same,Activity,Cortical neurone [1],46.61%
same,IC50 at 24 h,[2],272000 nM
same,Activity,Cortical neurone [3],36.84%
same,Activity,[8],44.44%
COc1cc2c(cc1OC)CC(CN1CCN(CCCNc3c4c(nc5cc(Cl)ccc35)C[C@H]3C=C(C)C[C@@H]4C3)CC1)C2,IC50,Acetylcholinesterase [9],2.61 nM
same,IC50,Cholinesterase [10],349 nM
Cc1cc(=O)[nH]c2c1C(=O)C(NCNc1c3c(nc4ccccc14)CCCC3)=CC2=O,IC50,Acetylcholinesterase [9],11.1 nM
same,IC50,Cholinesterase [10],180 nM
COc1cccc(C(C#N)N2CCN(CC(=O)Nc3c4c(nc5ccccc35)CCC4)CC2)c1OC (racemic),TGI,HepG2 [11],188160 nM
same,Activity,Astrocyte [12],Active
same,Activity,[7],31.11%
same,Activity,Astrocyte [13],Active
same,selectivity ratio at 24 h,[14],8
same,"remaining at 4 h, 200 µM",[15],52.4%
same,LC50,HepG2 [16],> 200000 nM
same,Activity,Astrocyte [17],Active
same,Stability,[18],Stable
same,Activity,Cortical neurone [1],47.45%
same,IC50 at 24 h,[2],476000 nM
same,Activity,[2],Toxic
same,Activity,Cortical neurone [3],71.05%
same,half-life at 200 µM,[19],4.8 h
same,Activity,Astrocyte [20],Active
same,GI50 at 24 h,in vitro,93600 nM
same,Activity,Astrocyte [21],~52%
same,Activity,[8],51.85%
same,IC50,Acetylcholinesterase [4]; read-out: IC50,440 nM
same,Activity,Astrocyte [22],Active
same,"metabolised at 4 h, 200 µM",[23],~48%
same,Activity,Astrocyte [24],~33%
same,permeability,[25],58%
same,Activity,Astrocyte [26],Active
same,IC50,Cholinesterase [5],310 nM
same,Activity,[6],Non-toxic
same,Activity,Astrocyte [27],Active
O=C(NCCCNc1c2c(nc3ccccc13)CCC2)c1cnc(Cl)c(Cl)c1,IC50,Acetylcholinesterase [9],52 nM
same,IC50,Cholinesterase [10],158 nM
CN(C)c1ccc(C(C#N)N2CCN(CC(=O)Nc3c4c(nc5ccccc35)CCC4)CC2)cc1 (racemic),Activity,Cortical neurone [1],22.03%
same,IC50 at 24 h,[2],218000 nM
same,Activity,[2],Toxic
same,Activity,Cortical neurone [3],34.63%
same,IC50,Acetylcholinesterase [4]; read-out: IC50,480 nM
same,IC50,Cholinesterase [5],410 nM
same,Activity,[6],Non-toxic
COc1ccc(C(C#N)N2CCN(CC(=O)Nc3c4c(nc5ccccc35)CCC4)CC2)c(OC)c1 (racemic),Activity,Cortical neurone [1],44.97%
same,IC50 at 24 h,[2],364000 nM
same,Activity,[2],Toxic
same,Activity,Cortical neurone [3],63.15%
same,IC50,Acetylcholinesterase [4],Not_active
same,IC50,Cholinesterase [5],910 nM
same,Activity,[6],Non-toxic
COc1ccc(C(C#N)N2CCN(CC(=O)Nc3c4c(nc5ccccc35)CCC4)CC2)cc1 (racemic),Activity,Cortical neurone [1],28.81%
same,IC50 at 24 h,[2],436000 nM
same,Activity,[2],Toxic
same,Activity,Cortical neurone [3],40.71%
same,IC50,Acetylcholinesterase [4],Not_active
same,IC50,Cholinesterase [5],640 nM
same,Activity,[6],Non-toxic
COc1ccc(OC)c(C(C#N)N2CCN(CC(=O)Nc3c4c(nc5ccccc35)CCC4)CC2)c1 (racemic),Activity,Cortical neurone [1],30.83%
same,IC50 at 24 h,[2],427000 nM
same,Activity,[2],Toxic
same,Activity,Cortical neurone [3],63.52%
same,IC50,Acetylcholinesterase [4],Not_active
same,IC50,Cholinesterase [5],1720 nM
same,Activity,[6],Non-toxic
COc1ccc(C(C#N)N2CCN(CC(=O)Nc3c4c(nc5ccccc35)CCC4)CC2)cc1OC (racemic),Activity,Cortical neurone [1],38.98%
same,IC50 at 24 h,[2],260000 nM
same,Activity,[2],Toxic
same,Activity,Cortical neurone [3],58.28%
same,IC50,Acetylcholinesterase [4],Not_active
same,IC50,Cholinesterase [5],440 nM
same,Activity,[6],Non-toxic

# — ChEMBL document CHEMBL6182836 (RSC Med Chem, 2025)
